Data published in the supplement of paper PMC11208160.

experiment: recombinant barcode read abundance after kanamycin selection (control-corrected) (log10(CPM+1)); higher = more efficient recombination; sequences stand for … in AGTGCAGAGAAAATCGGCCAGTTTTCTCTGCCTGCAGTCCGCATGCCGT…AGATTTATGCAGCGGACTGCCTTTCTCCCAAAGTGATAAACCGGACAGTATCATGGACCGGTTTTCCCGGTAATCCGTATTTGCAAGGTTGGTTTCACT; site = the 11-nt target
Summary of the method: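 Values are log10(CPM+1) from a pooled E. coli screen of targets paired with IS621 bridge RNA target-binding loops. Recombination efficiency here means counts per million of recombinant-junction barcodes, averaged and control-corrected. Plates were chloramphenicol/ampicillin LB agar for the control and chloramphenicol/ampicillin/kanamycin with 0.1 mM IPTG, two replicates each.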
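Also: IS621 recombinase and bridge RNA in Escherichia coli cells.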

Compared with “GTTACCGCTTGGGTTCTAACCTGTTGCCT (site GTTACCGCTAG)”, “GTTACGTCTTGGGTTCTAACCTGTTGCTT (site AGTACGTCTAA)” is lower in “recombinant barcode read abundance (log10)” value: 1.64 for the first, 0.115 for the second.

First: GTTACGTCTTGGGTTCTAACCTGTTGCTT (site GTTACGTCTAA)
Second: GTTAGACCTTGGGTTCTAACCTGTTGCCT (site GTTAGACCTAG)
The “recombinant barcode read abundance (log10)” value of the first is lower: 0.285 for the first, 0.949 for the second.

“GTTAGACCTTGGGTTCTAACCTGTTGCCT (site TGCCTCTCTTA)” and “GTTCAGCCTTGGGTTCTAACCTGTTGCCT (site GTCGAGCCTAG)” are within 0.2 log units of each other in “recombinant barcode read abundance (log10)” value: 0.0193 for the first, 0.0107 for the second.

Compared with “GTTCAGCCTTGGGTTCTAACCTGTTGCCT (site GTTCAGCCTAG)”, “GTTCCAGCTTGGGTTCTAACCTGTTGCCT (site AGCAGCCCTCT)” is lower in “recombinant barcode read abundance (log10)” value: 0.611 for the first, 0.0192 for the second.

Going from “GTTCCAGCTTGGGTTCTAACCTGTTGCCT (site GTTCCAGCTAG)” to “GTTCCATCTTGGGTTCTAACCTGTTGCCT (site GATCCATCTAG)”, the “recombinant barcode read abundance (log10)” value falls from 0.792 to 0.172.

“GTTCCATCTTGGGTTCTAACCTGTTGCCT (site GCTCCATCTAG)” and “GTTCCATCTTGGGTTCTAACCTGTTGCCT (site GGTCCATCTAG)” are within 0.2 log units of each other in “recombinant barcode read abundance (log10)” value: 0.28 for the first, 0.216 for the second.

Compared with “GTTCCATCTTGGGTTCTAACCTGTTGCCT (site GTTCCATCTAG)”, “GTTCCGGCTTGGGTTCTAACCTGTTGCCT (site GTTACGGCTAG)” is lower in “recombinant barcode read abundance (log10)” value: 0.601 for the first, 0.139 for the second.

First: GTTCCGGCTTGGGTTCTAACCTGTTGCCT (site GTTCCGGCTAG)
Second: GTTCCGGCTTGGGTTCTAACCTGTTGCCT (site GTTGCGGCTAG)
The “recombinant barcode read abundance (log10)” value of the first is higher: 0.834 for the first, 0.145 for the second.

“GTTCCGGCTTGGGTTCTAACCTGTTGCCT (site GTTTCGGCTAG)” and “GTTCCTACTTGGGTTCTAACCTGTTGCCT (site GATCCTACTAG)” are within 0.2 log units of each other in “recombinant barcode read abundance (log10)” value: 0.373 for the first, 0.215 for the second.

“GTTCCTACTTGGGTTCTAACCTGTTGCCT (site GCTCCTACTAG)” and “GTTCCTACTTGGGTTCTAACCTGTTGCCT (site GGTCCTACTAG)” are within 0.2 log units of each other in “recombinant barcode read abundance (log10)” value: 0.00954 for the first, 0.133 for the second.

“GTTCCTACTTGGGTTCTAACCTGTTGCCT (site GTTCCTACTAG)” and “GTTGCCACTTGGGTTCTAACCTGTTGCCT (site GTAGCCACTAG)” are within 0.2 log units of each other in “recombinant barcode read abundance (log10)” value: 0.328 for the first, 0.137 for the second.

“GTTGCCACTTGGGTTCTAACCTGTTGCCT (site GTCGCCACTAG)” and “GTTGCCACTTGGGTTCTAACCTGTTGCCT (site GTGGCCACTAG)” are within 0.2 log units of each other in “recombinant barcode read abundance (log10)” value: 0.0124 for the first, 0.0918 for the second.

First: GTTGCCACTTGGGTTCTAACCTGTTGCCT (site GTTGCCACTAG)
Second: GTTGGAACTTGGGTTCTAACCTGTTGCGT (site GTTGGAACTAC)
The “recombinant barcode read abundance (log10)” value of the first is lower: 0.411 for the first, 2.05 for the second.

“GTTGGAACTTGGGTTCTAACCTGTTGCGT (site GTTGGGACTAG)” and “GTTGGCGCTTGGGTTCTAACCTGTTGCCT (site GTAGGCGCTAG)” are within 0.2 log units of each other in “recombinant barcode read abundance (log10)” value: 0.312 for the first, 0.276 for the second.

“GTTGGCGCTTGGGTTCTAACCTGTTGCCT (site GTCGGCGCTAG)” and “GTTGGCGCTTGGGTTCTAACCTGTTGCCT (site GTGGGCGCTAG)” are within 0.2 log units of each other in “recombinant barcode read abundance (log10)” value: 0.125 for the first, 0.0363 for the second.

First: GTTGGCGCTTGGGTTCTAACCTGTTGCCT (site GTTGGCGCTAG)
Second: GTTGGGGCTTGGGTTCTAACCTGTTGCCT (site GTGGTGGCTAG)
The “recombinant barcode read abundance (log10)” value of the first is higher: 0.841 for the first, 0.254 for the second.
